Experimental data as given in patent US20250129048A1, “MELANOCORTIN 4 RECEPTOR ANTAGONISTS AND USES THEREOF” (Pfizer Inc., priority 2021, published 2025).

Experiments:
[1] = target: hMC4R (Homo sapiens (Human), UniProt P32245); test: In vitro binding affinity assay using hMC4R (radioligand competition binding, CHO cell membranes); conditions: competition with [125I]-(Nle4, D-Phe7)-α-MSH 0.5 nM; Ki from IC50 by Cheng-Prusoff; read-out: Ki (nM) geometric mean
Procedure: The binding affinity of test compounds at the α-melanocyte-stimulating hormone receptor (hMC4R) was assessed using a radioligand competition binding assay. Recombinant Chinese hamster ovaries (CHO) cells stably expressing hMC4R (PerkinElmer #ES-191-C) were used for competitive binding. hMC4R membranes were grown in Dulbecco's Modified Essential Medium and Ham's F-12 Medium (DMEM/F12), 10% heat inactivated fetal bovine serum (FBS), 0.4 mg/mL Geneticin and 2 mM L-glutamine. Cell membranes were bulked and frozen until the assay was performed.
Compounds were solubilized in 100% dimethyl sulfoxide (DMSO) to a concentration of 30 mM. A 10-point intermediate dilution series using half log dilutions was created in 100% DMSO with a top concentration of 0.03 mM. The serially diluted compounds were spotted as 1 μL/well, in 96-well Costar 3363 plates. The final compound range in the assay was 300 nM to 0.01 nM with a final DMSO concentration of 1%. Control wells, containing 1 μL of 2 mM ([…]) alpha-melanocyte stimulating hormone (α-MSH-Tocris #2584) was added to the non-specific binding wells and 1 μL 100% DMSO for the total binding control wells. This was followed by the addition of 80 μL of assay buffer [25 mM HEPES, 5 mM MgCl2, 2.5 mM CaCl2, 150 mM NaCl, Complete EDTA-free Protease Inhibitor Tablet (Thermo Scientific #11873580001) and 0.25% BSA]. […] The exact concentration of radioligand used for each experiment was determined by liquid scintillation counting and adjusted if necessary.
Frozen hMC4R cell membranes were thawed and Dounce homogenized. Homogenates were resuspended in assay buffer to a concentration of 2 μg per well. […] The plates were incubated for 2 hours at room temperature. Assay samples were then rapidly filtered through Unifilter-96 GF/B PEI coated filter plates using a filter plate harvester (PerkinElmer) and rinsed with ice-cold wash buffer [25 mM (4-(2-hydroxyethyl)-1-piperazineethanesulfonic acid (HEPES), 1 mM MgCl2, 2.5 mM CaCl2, and 500 mM NaCl]. Filter plates were dried overnight at room temperature. Plates were then bottom-sealed prior to the addition of 50 μL/well Ultima Gold XR scintillation fluid (PerkinElmer 6013111). Plates were then top-sealed, incubated for 60 minutes at room temperature and then the amount of radioactivity present was determined by liquid scintillation counting on a Microbeta Trilux (PerkinElmer #2450-0060).
The raw data (expressed as counts per minute) were analyzed using ActivityBase (IDBS Data Management Software). […] Equilibrium dissociation constant for inhibitor of ligand and receptor interaction (Ki) values were then calculated from the IC50 values using the Cheng-Prusoff equation: Ki=IC50/(1+([L]/Kd)), where [L] is the concentration of the radioligand used in the experiment and Kd is the affinity of the radioligand (determined in separate saturation experiments).

[2] = target: human Melanocortin-4 receptor (MC4R) (Homo sapiens (Human), UniProt P32245); test: Functional in vitro MC4R antagonist potency assay (intracellular cAMP, HTRF, CHO cells); type: cell-based; conditions: cAMP after EC80 agonist stimulation (200 nM αMSH); Kb from IC50 by Leff-Dougall equation; read-out: Kb (nM) Antagonist geometric mean
Procedure: The functional in vitro antagonist potency for test compounds was determined by monitoring intracellular cyclic adenosine monophosphate (cAMP) levels in Chinese hamster ovary (CHO—) cells stably expressing the human Melanocortin-4 receptor (MC4R). Following agonist activation, human MC4R associates with the G-protein complex causing the Ga subunit to exchange bound GDP for GTP, followed by dissociation of the Gα-GTP complex. The activated Ga subunit can couple to downstream effectors to regulate the levels of second messengers or cAMP within the cell. Thereby, determination of intracellular cAMP levels allows for pharmacological characterization. Intracellular cAMP levels are quantitated using a homogenous assay utilizing the Homogeneous Time-Resolved Fluorescence (HTRF) technology from CisBio. The method is a competitive immunoassay between native cAMP produced by cells and the cAMP labelled with the acceptor dye, d2. The two entities then compete for binding to a monoclonal anti-cAMP antibody labeled with cryptate. The specific signal is inversely proportional to the concentration of cAMP in the cells.
Test compounds were solubilized to 30 mM in 100% dimethyl sulfoxide (DMSO) and stored. An 11-point dilution series using 1 in 3 162-fold serial dilutions was created in 100% DMSO with a top concentration of 800 μM. The serially diluted compound was spotted into a 384-well plate (Greiner, Cat No. 781280) at 40 nL/well with duplicate points at each concentration, and then diluted 1 in 1000 with 40 μL assay buffer containing HBSS, 20 mM HEPES (Invitrogen), 0.1% BSA, and 250 μM IBMX (Sigma Aldrich) to create an intermediate plate at 2× final assay concentration (FAC). The final compound concentration range in the assay was 400 nM to […], with a final DMSO concentration of 0.1%.
In-house generated CHO cells stably expressing the Gs-coupled human MC4R receptor were plated in 384-well assay plates (Corning, Cat No. 3570) in 50 μL/well of Ham's F-12 containing 10% heat inactivated FBS, 1× penicillin/streptomycin, 1 mM Glutamax (Invitrogen) at a density of 2,500 cells per well and incubated at 37° C. (95% O2: 5% CO2) overnight, with micro-clime lids (Labcyte, Cat No. LLS-0310). On day of assay, media was removed from the assay plate through gentle flicking and blotting plate on a paper towel and replaced with 5 μL of 2× antagonist compound in assay buffer (HBSS, 20 mM HEPES, 0.1% BSA, 250 μM IBMX) and 0.1% DMSO. Cells were incubated with compound for 30 minutes at 37° C. (95% O2: 5% CO2) before addition of 5 μL EC80 agonist stimulation (200 nM α-melanocyte stimulating hormone, αMSH, Bachem) and another 30-minute incubation at 37° C. (95% O2: 5% CO2). Intracellular cAMP levels were quantified as per Cisbio's protocol (5 μL of D2 and then 5 μL Cryptate, incubated for 1-2 hours at room temperature). Samples were measured on an Envision plate reader (PerkinElmer Life and Analytical Sciences; excitation, 320 nm; emission, 665 nm/620 nm).
Data were analyzed using the ratio of fluorescence intensity at 620 and 665 nm for each well, extrapolated from the cAMP standard curve to express data as nM cAMP for each well. Data expressed as nM cAMP were then normalized to control wells using Activity Base (IDBS). Zero percent effect (ZPE) was defined as nM of cAMP generated from EC80 agonist stimulation (200 nM αMSH). In the absence of an antagonist control compound, one hundred percent effect (HPE) was defined as nM of cAMP generated from assay buffer/vehicle only.

Sequence of human Melanocortin-4 receptor (MC4R) (P32245 whole entry): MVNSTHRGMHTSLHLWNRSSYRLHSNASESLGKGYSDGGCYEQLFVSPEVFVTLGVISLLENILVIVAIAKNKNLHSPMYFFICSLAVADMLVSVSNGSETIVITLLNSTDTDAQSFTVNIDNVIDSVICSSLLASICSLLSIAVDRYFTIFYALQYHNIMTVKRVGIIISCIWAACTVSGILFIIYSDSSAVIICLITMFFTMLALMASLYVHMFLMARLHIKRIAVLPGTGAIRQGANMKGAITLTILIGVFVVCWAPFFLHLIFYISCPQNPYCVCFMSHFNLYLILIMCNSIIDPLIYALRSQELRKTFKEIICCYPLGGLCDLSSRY
Sequence of hMC4R (P32245 whole entry): as above

Row | Compound | Ki [1] [nM] | Kb [2] [nM]
1 | COc1cc([C@@H](C)C(=O)N2CC[C@H](Nc3ccc(-c4nc5ccccn5n4)c(C)n3)C2)c(F)cn1 [Example 43, (2R)-2-(5-fluoro-2-methoxypyridin-4-yl)-1-[(3S)-3-{[6-methyl-5-([1,2,4]triazolo[1,5-a]pyridin-2-yl)pyridin-2-yl]amino}pyrrolidin-1-yl]propan-1-one] | 0.91 | 9.5
2 | Cc1nc(N[C@H]2CCN(C(=O)Cc3cc(F)c(F)c(F)c3)C2)ccc1-c1cn(C)c(C(F)F)n1 [Example 28, 1-[(3S)-3-({5-[2-(difluoromethyl)-1-methyl-1H-imidazol-4-yl]-6-methylpyridin-2-yl}amino)pyrrolidin-1-yl]-2-(3,4,5-trifluorophenyl)ethan-1-one] | 0.25 | 1.3
3 | COc1cc(OC(F)F)cc([C@@H](C)C(=O)N2CC[C@H](Nc3ccc(-c4ncccn4)c(C)n3)C2)c1 (single isomer, unassigned) [Example 44B] | 0.77 | 4.1
4 | COc1cc(OC(F)F)cc([C@@H](C)C(=O)N2CC[C@H](Nc3ccc(-c4nc(C(C)(F)F)n(C)n4)c(C)n3)C2)c1 (single isomer, unassigned) [Example 40B] | 0.29 | 7.2
5 | COc1cc([C@@H](C)C(=O)N2CC[C@H](Nc3ccc(-c4nc(C(F)F)n(C5CC5)n4)c(C)n3)C2)c(F)cn1 [Example 8, (2R)-1-[(3S)-3-({5-[1-cyclopropyl-5-(difluoromethyl)-1H-1,2,4-triazol-3-yl]-6-methylpyridin-2-yl}amino)pyrrolidin-1-yl]-2-(5-fluoro-2-methoxypyridin-4-yl)propan-1-one] | 1.2 | 19
6 | COc1ccc(C)c([C@@H](C)C(=O)N2CC[C@H](Nc3ccc(-c4cn(C)cn4)c(C)n3)C2)c1 (single isomer, unassigned) [Example 20B] | 0.23 | 2.9
7 | COc1cc([C@@H](C)C(=O)N2CC[C@H](Nc3ccc(-c4nnn(C)n4)c(C)n3)C2)c(F)cn1 [Example 5, (2R)-2-(5-fluoro-2-methoxypyridin-4-yl)-1-[(3S)-3-{[6-methyl-5-(2-methyl-2H-tetrazol-5-yl)pyridin-2-yl]amino}pyrrolidin-1-yl]propan-1-one] | 2.6 | 17
8 | COc1cc([C@@H](C)C(=O)N2CC[C@H](Nc3ccc(-c4ncccn4)c(C)n3)C2)cc(OC(F)F)n1 (single isomer, unassigned) [Example 30A] | > 200 | > 62
9 | [2H]C([2H])([2H])n1nc(-c2ccc(N[C@H]3CCN(C(=O)[C@H](C)c4cc(OC)ncc4F)C3)nc2C)nc1C(F)(F)F [Example 42, (2R)-2-(5-fluoro-2-methoxypyridin-4-yl)-1-[(3S)-3-({6-methyl-5-[1-(^2H3)methyl-5-(trifluoromethyl)-1H-1,2,4-triazol-3-yl]pyridin-2-yl}amino)pyrrolidin-1-yl]propan-1-one] | 1.3 | 5.4
10 | COc1cc([C@@H](C)C(=O)N2CC[C@H](Nc3ccc(-c4nnn(C)n4)c(C)n3)C2)c(C)cn1 (single isomer, unassigned) [Example 26A] | > 170 | > 150
11 | COc1cc([C@@H](C)C(=O)N2CC[C@H](Nc3ccc(-c4ncccn4)c(C)n3)C2)c(C)cn1 (single isomer, unassigned) [Example 22A] | 120 | > 110
12 | Cc1nc(N[C@H]2CCN(C(=O)[C@H](F)c3ccccc3)C2)ccc1-c1cn(C)cn1 (single isomer, unassigned) [Example 13B] | 0.34 | 2.9
13 | COc1cc([C@@H](C)C(=O)N2CC[C@H](Nc3ccc(-c4ncccn4)c(C)n3)C2)cc(OC(F)F)n1 (single isomer, unassigned) [Example 30B] | 0.93 | 6.8
14 | COc1cc([C@@H](C)C(=O)N2CC[C@H](Nc3ccc(-c4cn(C)c(C(C)(F)F)n4)c(C)n3)C2)c(C)cn1 (single isomer, unassigned) [Example 16B] | 0.23 | 2.1
